Our source for the Kd values is paper PMC10837130, “ATP-dependent conformational dynamics in a photoactivated adenylate cyclase revealed by fluorescence spectroscopy and small-angle X-ray scattering” (Communications Biology, 2024).

Format in all cases: binding
The target of assay [1] is T1, OaPAC (photoactivated adenylate cyclase) (Oxynema acuminatum, UniProt K9TLZ5).
T1 sequence (K9TLZ5 1-366): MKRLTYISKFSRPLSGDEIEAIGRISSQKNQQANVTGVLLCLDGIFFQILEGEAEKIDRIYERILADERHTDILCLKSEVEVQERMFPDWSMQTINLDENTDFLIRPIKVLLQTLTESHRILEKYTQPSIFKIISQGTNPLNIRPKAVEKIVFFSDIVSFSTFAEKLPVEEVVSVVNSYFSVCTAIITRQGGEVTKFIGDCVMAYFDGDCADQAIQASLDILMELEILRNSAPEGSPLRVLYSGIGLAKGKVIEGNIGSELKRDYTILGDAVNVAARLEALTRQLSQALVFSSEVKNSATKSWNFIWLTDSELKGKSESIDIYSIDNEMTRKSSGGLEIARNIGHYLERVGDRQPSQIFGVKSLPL
The assay can be described thus: ITC (also nanoDSF, DSC, flavin-emission thermal shift, SAXS). Set-up: gene Oscil6304_3613; Full-length OaPAC (366 aa, homodimer), dark-adapted state. In general terms: Differential scanning fluorimetry follows unfolding on heating by fluorescence.

In assay [2] the target is T1, OaPAC (photoactivated adenylate cyclase). Kind of assay: ITC (also nanoDSF, SAXS titration, CD). Set-up: gene Oscil6304_3613; Full-length OaPAC (366 aa, homodimer), dark-adapted state.
The target is the same in assay [3]. The assay can be described thus: steady-state fluorescence anisotropy; stopped-flow fluorescence (KD […]). More on the design: gene Oscil6304_3613; Full-length OaPAC (366 aa, homodimer). (In fluorescence polarisation assays a small probe gives low polarisation when free and higher when bound to something large.)

The term Kd denotes the concentration at which binding is half-saturated.

Take `Nc1ncnc2c1ncn2[C@@H]1O[C@H](COP(=O)(O)CP(=O)(O)OP(=O)(O)O)[C@@H](O)[C@H]1O` [ApCpp, Adenosine-5’-[(α,β)-methyleno]triphosphate]: the Kd in assay [1] amounted to 5.92 ± 5.06 µM.
On to `Nc1ncnc2c1ncn2[C@@H]1O[C@H](COP(=O)(O)OP(=O)(O)OP(=O)(O)O)[C@@H](O)[C@H]1O` [ATP], for which binding in assay [2] was characterised by a dissociation constant (Kd) of 3.24 ± 1.9 µM.
In turn, `CNc1ccccc1C(=O)O[C@H]1[C@@H](O)[C@H](n2cnc3c(N)ncnc32)O[C@@H]1CO[P@@](=O)(O)O[P@](=O)(O)OP(=O)(O)O` [mantATP] yielded a Kd in assay [3] of 2.25 ± 0.4 µM.
